Assay results published in patent US10342809B2, “Neuroactive 19-alkoxy-17-substituted steroids, prodrugs thereof, and methods of treatment using same” (priority 2012, dated 2019).
Like-named read-outs stand apart in the source and are kept apart here.

What was measured:
Tadpole = Tadpole loss of righting reflex (LRR) and loss of swimming reflex (LSR); type: in vivo; conditions: ± SEM
Procedure: Table 3 discloses the anesthetic effects of the compounds of the present disclosure. In particular, the anesthetic effect of the compounds of the present disclosure on Loss of Righting Reflex (LRR) and Loss of Swimming Reflex (LSR).
Methods used are known in the art (see Jiang, X., et al.). Error limits are calculated as standard error of the mean (N=10 or more animals at each of five or more different concentrations).

[1] = target: T1, rat α1β2γ2L type GABAA receptors expressed in Xenopus laevis oocytes (Rattus norvegicus, UniProt P62813+P63138); assay: Oocyte electrophysiology: potentiation of GABA-mediated chloride currents and direct gating; type: cell-based; conditions: 2 μM GABA, ± SEM, N ≥4; for oocyte electrophysiology 0.1 μM: ratio of currents in presence/absence of 0.1 μM compound; for oocyte electrophysiology 1 μM: ratio of currents in presence/absence of 1 μM compound; for oocyte electrophysiology 10 μM: ratio of currents in presence/absence of 10 μM compound
T1 construct: expressed in transfected cells; host or cells: Xenopus laevis oocytes
T1 sequence (P62813 28-455): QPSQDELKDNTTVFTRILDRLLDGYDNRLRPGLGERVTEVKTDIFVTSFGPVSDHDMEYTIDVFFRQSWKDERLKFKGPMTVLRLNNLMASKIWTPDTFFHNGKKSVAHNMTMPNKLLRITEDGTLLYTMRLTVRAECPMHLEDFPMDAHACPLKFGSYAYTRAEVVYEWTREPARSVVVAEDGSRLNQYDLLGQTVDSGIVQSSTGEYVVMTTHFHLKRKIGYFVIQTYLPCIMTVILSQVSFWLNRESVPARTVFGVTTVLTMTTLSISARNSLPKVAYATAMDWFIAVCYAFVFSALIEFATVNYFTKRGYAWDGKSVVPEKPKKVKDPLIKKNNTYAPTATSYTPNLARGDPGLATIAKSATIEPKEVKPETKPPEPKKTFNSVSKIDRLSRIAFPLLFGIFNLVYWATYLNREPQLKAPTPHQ
T1 sequence (P63138 26-474): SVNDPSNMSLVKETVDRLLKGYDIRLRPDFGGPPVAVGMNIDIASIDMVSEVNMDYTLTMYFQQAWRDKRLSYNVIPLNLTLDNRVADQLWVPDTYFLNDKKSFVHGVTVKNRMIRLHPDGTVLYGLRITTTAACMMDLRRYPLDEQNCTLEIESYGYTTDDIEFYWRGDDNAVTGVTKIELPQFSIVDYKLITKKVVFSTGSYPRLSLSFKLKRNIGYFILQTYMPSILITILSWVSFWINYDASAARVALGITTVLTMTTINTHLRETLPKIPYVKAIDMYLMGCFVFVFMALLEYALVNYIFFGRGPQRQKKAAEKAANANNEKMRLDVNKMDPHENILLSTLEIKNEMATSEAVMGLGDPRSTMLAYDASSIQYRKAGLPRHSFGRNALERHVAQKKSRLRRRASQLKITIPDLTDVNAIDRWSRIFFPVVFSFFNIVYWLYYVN
T1 sequence (P18508 with tags, fused parts or gaps INS375LLRMFSFK partner): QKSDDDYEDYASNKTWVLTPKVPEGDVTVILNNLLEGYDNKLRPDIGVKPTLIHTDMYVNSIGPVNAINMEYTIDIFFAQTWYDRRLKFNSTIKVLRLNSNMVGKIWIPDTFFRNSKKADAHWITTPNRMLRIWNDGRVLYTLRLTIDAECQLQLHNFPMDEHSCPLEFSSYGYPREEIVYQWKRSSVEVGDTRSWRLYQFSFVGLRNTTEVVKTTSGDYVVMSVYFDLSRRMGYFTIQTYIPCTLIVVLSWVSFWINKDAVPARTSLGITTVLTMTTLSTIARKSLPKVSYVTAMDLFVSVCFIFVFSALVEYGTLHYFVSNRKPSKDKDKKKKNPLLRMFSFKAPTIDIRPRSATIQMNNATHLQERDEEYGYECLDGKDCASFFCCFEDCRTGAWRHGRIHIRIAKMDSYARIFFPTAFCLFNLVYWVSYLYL
Procedure: The compounds of the present disclosure were evaluated for the ability to potentiate chloride currents mediated by 2 μM GABA at rat α1β2γ2L type GABAA receptors expressed in Xenopus laevis oocytes and the results are shown in Table 2.

[2] = target: T1, rat α1β2γ2L type GABAA receptors expressed in Xenopus laevis oocytes; assay: Oocyte electrophysiology: potentiation of GABA-mediated chloride currents and direct gating; type: cell-based; conditions: direct current gated by 10 μM compound in absence of GABA; ratio of compound only current/2 μM GABA current
[3] = target: picrotoxin binding site on GABAA receptors; assay: [35S]-TBPS displacement (inhibition of [35S]-TBPS binding); conditions: non-competitive displacement; duplicate experiments in triplicate; ± SEM
Description: The IC50 values for non-competitive displacers of [^35S]-TBPS from the picrotoxin binding site on GABAA receptors are reported in Table 1.

[4] = loss of righting reflex, read-out: Tadpole LRR EC50
[5] = loss of swimming reflex, read-out: Tadpole LSR EC50

**Q.** With COC[C@]12CCC(O)CC1CC[C@@H]1[C@@H]2CC[C@]2(C)C(=O)CC[C@@H]12 (stereo in doubt) [Compound 30, (3α,5β)-3-Hydroxy-19-methoxyandrostan-17-one] as the molecule, how does the EC50 (Tadpole; [4]) read?
**A.** > 10 µM

**Q.** What about the “oocyte electrophysiology 0.1 μM” value [1] of the same molecule?
**A.** 0.90 ± 0.02

**Q.** And the “oocyte electrophysiology 1 μM” value [1]?
**A.** 0.88 ± 0.01

**Q.** And the “oocyte electrophysiology 10 μM” value [1]?
**A.** 0.84 ± 0.02

**Q.** For COC[C@]12CCC(=O)C[C@@H]1CC[C@H]1[C@@H]3CC[C@H](OC)[C@@]3(C)CC[C@@H]12 [Compound 7, (5α,17β)-17,19-Dimethoxyandrostan-3-one], which melting point is on record?
**A.** 91 to 93 °C

**Q.** What about the EC50 (Tadpole; [4]) of the same molecule?
**A.** 1.71 ± 0.25 µM

**Q.** And the EC50 (Tadpole; [5])?
**A.** 5.48 ± 0.12 µM

**Q.** What about the “oocyte electrophysiology 0.1 μM” value [1] of the same molecule?
**A.** 1.00 ± 0

**Q.** And the “oocyte electrophysiology 1 μM” value [1]?
**A.** 0.85 ± 0.01

**Q.** What about the “oocyte electrophysiology 10 μM” value [1] of the same molecule?
**A.** 1.07 ± 0.02

**Q.** What about the “oocyte electrophysiology (gating) 10 μM” value [2] of the same molecule?
**A.** 0.04 ± 0.03

**Q.** For COC[C@]12CC[C@@H](O)C[C@@H]1CC[C@H]1[C@@H]3CC[C@H](OC)[C@@]3(C)CC[C@@H]12 [Compound 8, (5α,17β)-17,19-Dimethoxyandrostan-3-ol], which EC50 (Tadpole; [4]) is on record?
**A.** 332 ± 43 µM

**Q.** What about the EC50 (Tadpole; [5]) of the same molecule?
**A.** 1.07 ± 0.01 µM

**Q.** What about the “oocyte electrophysiology 0.1 μM” value [1] of the same molecule?
**A.** 1.65 ± 0.08

**Q.** And the “oocyte electrophysiology 1 μM” value [1]?
**A.** 7.63 ± 0.77

**Q.** And the “oocyte electrophysiology 10 μM” value [1]?
**A.** 20.9 ± 2.73

**Q.** What about the “oocyte electrophysiology (gating) 10 μM” value [2] of the same molecule?
**A.** 0.22 ± 0.01

**Q.** What does the source list for COC[C@]12CC[C@@H](O)C[C@@H]1CC[C@@H]1[C@@H]2CC[C@]2(C)C(=O)CC[C@@H]12 [Compound 11, (3α,5α)-3-Hydroxy-19-methoxyandrostan-17-one]?
**A.** IC50 [3]: 4.3 µM; EC50 (Tadpole; [4]): 7.95 ± 3.29 µM; EC50 (Tadpole; [5]): 17.3 ± 0.2 µM; oocyte electrophysiology 0.1 μM [1]: 0.71 ± 0.02; oocyte electrophysiology 1 μM [1]: 0.76 ± 0.07; oocyte electrophysiology 10 μM [1]: 2.17 ± 0.12; oocyte electrophysiology (gating) 10 μM [2]: 0 ± 0.07

**Q.** For COC[C@]12CC[C@@H](O)C[C@@H]1CC[C@@H]1[C@@H]2CC[C@@]2(C)[C@H]1CC[C@@]21CO1 [Compound 12, (3α,5α,17β)-19-Methoxyspiro[androstane-17,2′-oxiran]-3-ol], which EC50 (Tadpole; [4]) is on record?
**A.** 1.73 ± 0.05 µM

**Q.** And the EC50 (Tadpole; [5])?
**A.** 3.54 ± 2.33 µM

**Q.** What about the “oocyte electrophysiology 0.1 μM” value [1] of the same molecule?
**A.** 1.24 ± 0.05

**Q.** What about the “oocyte electrophysiology 1 μM” value [1] of the same molecule?
**A.** 7.40 ± 1.43

**Q.** What about the “oocyte electrophysiology 10 μM” value [1] of the same molecule?
**A.** 18.7 ± 6.19

**Q.** And the “oocyte electrophysiology (gating) 10 μM” value [2]?
**A.** 0.14 ± 0.04

**Q.** What does the source list for COC[C@]12CC[C@@H](O)C[C@@H]1CC[C@@H]1[C@@H]2CC[C@]2(C)C(C#N)=CC[C@@H]12 [Compound 15, (3α,5α)-3-Hydroxy-19-methoxyandrost-16-ene-17-carbonitrile]?
**A.** EC50 (Tadpole; [4]): 1.22 ± 0.94 µM; EC50 (Tadpole; [5]): 2.71 µM; oocyte electrophysiology 0.1 μM [1]: 1.27 ± 0.13; oocyte electrophysiology 1 μM [1]: 5.34 ± 0.86; oocyte electrophysiology 10 μM [1]: 25.6 ± 3.23; oocyte electrophysiology (gating) 10 μM [2]: 0.10 ± 0.09

**Q.** Which results are given for COC[C@]12CC[C@@H](O)C[C@@H]1CC[C@H]1[C@@H]3CC[C@H](C#N)[C@@]3(C)CC[C@@H]12 [Compound 16, (3α,5α,17β)-3-Hydroxy-19-methoxyandrostane-17-carbonitrile]?
**A.** EC50 (Tadpole; [4]): 0.36 ± 0.04 µM; EC50 (Tadpole; [5]): 0.99 ± 0.17 µM; oocyte electrophysiology 0.1 μM [1]: 1.52 ± 0.02; oocyte electrophysiology 1 μM [1]: 9.79 ± 0.53; oocyte electrophysiology 10 μM [1]: 25.7 ± 2.11; oocyte electrophysiology (gating) 10 μM [2]: 0.25 ± 0.11

**Q.** With COC[C@]12CC[C@@H](O)C[C@@H]1CC[C@H]1[C@@H]3CC[C@H](C(C)=O)[C@@]3(C)CC[C@@H]12 [Compound 17, (3α,5α)-3-Hydroxy-19-methoxypregnan-20-one] as the molecule, how does the EC50 (Tadpole; [4]) read?
**A.** 0.36 ± 0.04 µM

**Q.** And the EC50 (Tadpole; [5])?
**A.** 1.71 ± 0.03 µM

**Q.** What about the “oocyte electrophysiology 0.1 μM” value [1] of the same molecule?
**A.** 2.15 ± 0.19

**Q.** And the “oocyte electrophysiology 1 μM” value [1]?
**A.** 12.8 ± 1.74

**Q.** And the “oocyte electrophysiology 10 μM” value [1]?
**A.** 33.8 ± 5.44

**Q.** And the “oocyte electrophysiology (gating) 10 μM” value [2]?
**A.** 0.23 ± 0.07

**Q.** With COC[C@]12CC[C@@H](O)C[C@@H]1CC[C@H]1[C@@H]3CC[C@H](C(=O)CO)[C@@]3(C)CC[C@@H]12 [Compound 20, (3α,5α)-3,21-Dihydroxy-19-methoxypregnan-20-one] as the molecule, how does the EC50 (Tadpole; [4]) read?
**A.** 3.15 ± 0.5 µM

**Q.** And the EC50 (Tadpole; [5])?
**A.** 5.48 ± 0.12 µM

**Q.** And the “oocyte electrophysiology 0.1 μM” value [1]?
**A.** 0.98 ± 0.01

**Q.** What about the “oocyte electrophysiology 1 μM” value [1] of the same molecule?
**A.** 2.76 ± 0.27

**Q.** And the “oocyte electrophysiology 10 μM” value [1]?
**A.** 19.0 ± 2.31

**Q.** And the “oocyte electrophysiology (gating) 10 μM” value [2]?
**A.** 0.09 ± 0.05

**Q.** What does the source list for COC[C@]12CCC(=O)C=C1CC[C@@H]1[C@@H]2CC[C@]2(C)[C@@H](OC)CC[C@@H]12 [Compound 24, (17β)-17,19-Dimethoxyandrost-4-en-3-one]?
**A.** oocyte electrophysiology 0.1 μM [1]: 0.88 ± 0.08; oocyte electrophysiology 1 μM [1]: 0.63 ± 0.06; oocyte electrophysiology 10 μM [1]: 1.06 ± 0.17; oocyte electrophysiology (gating) 10 μM [2]: 0.11 ± 0.17

**Q.** Which EC50 (Tadpole; [4]) does the source give for COC[C@]12CC[C@@H](O)CC1=CC[C@@H]1[C@@H]2CC[C@]2(C)[C@@H](OC)CC[C@@H]12 [Compound 25, (3α,17β)-17, 19-Dimethoxyandrost-5-en-3-ol] here?
**A.** 3.38 ± 0.38 µM

**Q.** What about the EC50 (Tadpole; [5]) of the same molecule?
**A.** 10.5 µM

**Q.** What about the “oocyte electrophysiology 0.1 μM” value [1] of the same molecule?
**A.** 0.94 ± 0.07

**Q.** What about the “oocyte electrophysiology 1 μM” value [1] of the same molecule?
**A.** 1.97 ± 0.08

**Q.** And the “oocyte electrophysiology 10 μM” value [1]?
**A.** 15.7 ± 0.90

**Q.** And the “oocyte electrophysiology (gating) 10 μM” value [2]?
**A.** 0.08 ± 0.07

**Q.** Which results are given for COC[C@]12CC[C@H](O)CC1=CC[C@@H]1[C@@H]2CC[C@]2(C)[C@@H](OC)CC[C@@H]12 [Compound 26, (3β,17β)-17, 19-Dimethoxyandrost-5-en-3-ol]?
**A.** oocyte electrophysiology 0.1 μM [1]: 0.83 ± 0.03; oocyte electrophysiology 1 μM [1]: 0.76 ± 0.02; oocyte electrophysiology 10 μM [1]: 0.78 ± 0.02; oocyte electrophysiology (gating) 10 μM [2]: 0.02 ± 0.02

**Q.** Which results are given for COC[C@]12CC[C@@H](O)C[C@@H]1CC[C@H]1[C@@H]3CC[C@H]([N+](=O)[O-])[C@@]3(C)CC[C@@H]12 [Compound 29, (3α,5α,17β)-19-methoxy-17-nitroandrostan-3-ol]?
**A.** EC50 (Tadpole; [4]): 0.16 ± 0.01 µM; EC50 (Tadpole; [5]): 0.55 ± 0.01 µM; oocyte electrophysiology 0.1 μM [1]: 2.07 ± 0.09; oocyte electrophysiology 1 μM [1]: 15.7 ± 1.45; oocyte electrophysiology 10 μM [1]: 26.6 ± 4.34; oocyte electrophysiology (gating) 10 μM [2]: 0.11 ± 0.01

**Q.** For COC[C@]12CC[C@H](O)C[C@@H]1CC[C@H]1[C@@H]3CC[C@H](OC)[C@@]3(C)CC[C@@H]12 [Compound 31, (3β,5α,17β)-17, 19-Dimethoxyandrostan-3-ol], which EC50 (Tadpole; [4]) is on record?
**A.** 7.04 ± 1.98 µM

**Q.** What about the EC50 (Tadpole; [5]) of the same molecule?
**A.** 16.8 ± 5.9 µM

**Q.** What about the “oocyte electrophysiology 0.1 μM” value [1] of the same molecule?
**A.** 0.91 ± 0.02

**Q.** What about the “oocyte electrophysiology 1 μM” value [1] of the same molecule?
**A.** 0.97 ± 0.05

**Q.** And the “oocyte electrophysiology 10 μM” value [1]?
**A.** 1.10 ± 0.05

**Q.** And the “oocyte electrophysiology (gating) 10 μM” value [2]?
**A.** 0.02 ± 0
